Assay [1] concerns the target T1, WT 5-HT3 receptor (mouse 5-HT3A subunit) (Mus musculus, UniProt P23979).
T1 sequence (P23979 24-483 isoform P23979-2 limits assumed): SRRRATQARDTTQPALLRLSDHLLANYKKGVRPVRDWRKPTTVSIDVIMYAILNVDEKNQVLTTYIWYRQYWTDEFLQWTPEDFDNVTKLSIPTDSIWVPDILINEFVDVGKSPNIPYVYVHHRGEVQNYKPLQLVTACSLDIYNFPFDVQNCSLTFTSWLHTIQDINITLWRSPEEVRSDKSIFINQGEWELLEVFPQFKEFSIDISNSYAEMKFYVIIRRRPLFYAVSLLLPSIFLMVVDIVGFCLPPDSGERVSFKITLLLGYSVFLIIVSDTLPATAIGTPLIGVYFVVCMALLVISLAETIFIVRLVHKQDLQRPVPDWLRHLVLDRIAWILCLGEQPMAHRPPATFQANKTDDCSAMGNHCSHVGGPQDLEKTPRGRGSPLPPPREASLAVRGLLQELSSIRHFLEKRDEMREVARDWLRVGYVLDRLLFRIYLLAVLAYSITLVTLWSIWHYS
As to the kind of experiment: Agonist-induced currents, voltage clamp electrophysiology in Xenopus oocytes. The format is cell-based. The note with it: for nH (Hill coefficient): WT; for EC50: oocytes, holding potential −60 mV.

The target of assay [2] is T2, N128A mutant 5-HT3 receptor (mouse 5-HT3A subunit) (Mus musculus, UniProt P23979, N128A).
T2 sequence (P23979 24-483 isoform P23979-2 N128A limits assumed): T1 sequence (P23979 24-483 isoform P23979-2 limits assumed) with N105A
The assay is described as above. The format is cell-based. To be noted: for nH (Hill coefficient): N128A.

The target of assay [3] is T3, N128D mutant 5-HT3 receptor (mouse 5-HT3A subunit) (Mus musculus, UniProt P23979, N128D).
T3 sequence (P23979 24-483 isoform P23979-2 N128D limits assumed): T1 sequence (P23979 24-483 isoform P23979-2 limits assumed) with N105D
Described as above. The format is cell-based.

Assay [4] has as its target T4, N128E mutant 5-HT3 receptor (mouse 5-HT3A subunit) (Mus musculus, UniProt P23979, N128E).
T4 sequence (P23979 24-483 isoform P23979-2 N128E limits assumed): T1 sequence (P23979 24-483 isoform P23979-2 limits assumed) with N105E
The assay is described as above. It is filed as cell-based. To be noted: for nH (Hill coefficient): N128E.

Assay [5] deals with T5, N128Q mutant 5-HT3 receptor (mouse 5-HT3A subunit) (Mus musculus, UniProt P23979, N128Q).
T5 sequence (P23979 24-483 isoform P23979-2 N128Q limits assumed): T1 sequence (P23979 24-483 isoform P23979-2 limits assumed) with N105Q
Described as above. It is filed as cell-based. The note with it: for nH (Hill coefficient): N128Q.

The target of assay [6] is T6, E129D mutant 5-HT3 receptor (mouse 5-HT3A subunit) (Mus musculus, UniProt P23979, E129D).
T6 sequence (P23979 24-483 isoform P23979-2 E129D limits assumed): T1 sequence (P23979 24-483 isoform P23979-2 limits assumed) with E106D
The assay is described as above. It is filed as cell-based.

Assay [7] addresses T7, E129N mutant 5-HT3 receptor (mouse 5-HT3A subunit) (Mus musculus, UniProt P23979, E129N).
T7 sequence (P23979 24-483 isoform P23979-2 E129N limits assumed): T1 sequence (P23979 24-483 isoform P23979-2 limits assumed) with E106N
The description is as above. It is filed as cell-based.

The target in assay [8] is E129A mutant 5-HT3 receptor (mouse 5-HT3A subunit) (Mus musculus, UniProt P23979, E129A). As to the kind of experiment: Single-point [3H]granisetron binding to solubilized oocyte preparations. To be noted: 0.5 nM [3H]granisetron.
For assay [9], the target named is E129G mutant 5-HT3 receptor (mouse 5-HT3A subunit) (Mus musculus, UniProt P23979, E129G). Described as above. To be noted: 0.5 nM [3H]granisetron.
In assay [10] the target is E129K mutant 5-HT3 receptor (mouse 5-HT3A subunit) (Mus musculus, UniProt P23979, E129K). The assay is described as above. To be noted: 0.5 nM [3H]granisetron.
Assay [11] relates to Asn128 mutant 5-HT3 receptors. The note with it: Asn128 mutant receptors in HEK cells; cited from earlier work.
The test system of assay [12] is Glu129 mutant 5-HT3 receptors. The note with it: any Glu129 mutant receptor in HEK cells; concentrations up to 20 nM; cited from earlier work.
The target of assay [13] is T6, E129D mutant 5-HT3 receptor (mouse 5-HT3A subunit). As to the kind of experiment: Granisetron inhibition of 5-HT-induced responses in oocytes. The note with it: EC50 concentration of 5-HT. It is filed as cell-based.
Assay [14] has as its target T7, E129N mutant 5-HT3 receptor (mouse 5-HT3A subunit). The description is as above. The note with it: 100 nM granisetron, EC50 concentration of 5-HT. It is filed as cell-based.

Here are results for 4 compounds from PMC2649372 (Biochemistry, 2008).

One may read the EC50 as the concentration that produces a half-maximal response. Read a low EC50 as an effect from little substance.

Positions count from the first letter of the chain named. Several values for one entry are separate records, joined by “and”; a condition that tells them apart may be missing. Equal entries are not always repeated. Marks after values point to notes of the source that are not given here.

Chain of E129A mutant 5-HT3 receptor (mouse 5-HT3A subunit) (P23979 24-489 E129A): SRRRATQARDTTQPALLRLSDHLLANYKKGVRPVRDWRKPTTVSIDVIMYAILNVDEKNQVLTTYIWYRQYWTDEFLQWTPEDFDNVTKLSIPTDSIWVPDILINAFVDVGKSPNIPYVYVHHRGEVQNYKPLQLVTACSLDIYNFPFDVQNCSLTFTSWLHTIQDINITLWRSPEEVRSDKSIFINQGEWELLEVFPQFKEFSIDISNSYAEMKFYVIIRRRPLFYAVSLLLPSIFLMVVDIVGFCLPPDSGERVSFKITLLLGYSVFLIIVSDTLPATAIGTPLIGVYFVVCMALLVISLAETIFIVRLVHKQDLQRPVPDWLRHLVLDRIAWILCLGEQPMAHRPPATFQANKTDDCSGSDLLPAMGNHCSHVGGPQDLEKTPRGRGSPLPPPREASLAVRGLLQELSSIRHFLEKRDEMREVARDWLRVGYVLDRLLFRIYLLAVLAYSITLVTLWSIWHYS
Chain of E129G mutant 5-HT3 receptor (mouse 5-HT3A subunit) (P23979 24-483 isoform P23979-2 E129G limits assumed): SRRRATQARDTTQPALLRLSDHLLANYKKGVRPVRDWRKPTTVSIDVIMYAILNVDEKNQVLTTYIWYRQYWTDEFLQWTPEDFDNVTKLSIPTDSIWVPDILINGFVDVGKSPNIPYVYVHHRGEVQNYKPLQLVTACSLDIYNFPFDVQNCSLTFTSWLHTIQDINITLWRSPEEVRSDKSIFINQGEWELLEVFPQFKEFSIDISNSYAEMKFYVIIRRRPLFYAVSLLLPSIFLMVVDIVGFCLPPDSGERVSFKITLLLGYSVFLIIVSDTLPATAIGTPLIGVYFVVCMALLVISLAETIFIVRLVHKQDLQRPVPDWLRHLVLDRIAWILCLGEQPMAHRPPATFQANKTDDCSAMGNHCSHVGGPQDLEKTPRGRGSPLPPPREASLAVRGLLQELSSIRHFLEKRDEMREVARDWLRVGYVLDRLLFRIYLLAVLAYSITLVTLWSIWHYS
Chain of E129K mutant 5-HT3 receptor (mouse 5-HT3A subunit) (P23979 24-483 isoform P23979-2 E129K limits assumed): as the sequence (P23979 24-483 isoform P23979-2 E129G limits assumed) above, with G106K counted along it

`NCCc1c[nH]c2ccc(F)cc12` [5-FT, 5-fluorotryptamine]: the “nH (Hill coefficient)” value is 2.71 ± 0.24 in assay [1]; 2.34 ± 0.75 in assay [2]; 2.61 ± 0.28 in [3] (N128D); 1.97 ± 0.18 in assay [4]; 2.38 ± 0.58 in assay [5]; 1.95 ± 0.30 in assay [6] (E129D). Further, the “nH (Hill coefficient)” value in assay [7] (E129N) is 1.25 ± 0.13 ^b. Further, the EC50 in assay [1] (pEC50, WT) is 17.8 µM; in [2], 10 µM; in assay [3], 17.8 µM; in assay [4] it was 13.8 µM; in [5] it was 94 µM; in [6], 8.3 µM. The compound also gave an EC50 in [7] of 11.7 µM.
For the compound `CN1C2CCCC1CC(NC(=O)c1nn(C)c3ccccc13)C2` (stereo not shown) [[^3H]granisetron], the specific radioligand binding result in assay [8], in assay [9] and in assay [10] was “No specific radioligand binding” throughout. For the same compound, the “binding affinity vs WT” value in assay [11] was “no significant differences”. In addition, in [12], the specific binding result is on record as “no specific binding”.
`CN1C2CCCC1CC(NC(=O)c1nn(C)c3ccccc13)C2` (stereo not shown) [granisetron]: the “block of the response to 5-HT” value in [13] (10 nM granisetron) is 80 ± 5% and ~80%; in assay [13] (100 nM granisetron), 96 ± 3%; in assay [14], “did not block”.
In the case of `NCCc1c[nH]c2ccccc12` [tryptamine], the EC50 is 120 µM in assay [1] (EC50, WT); 117 µM in assay [1] (pEC50, WT); 91 µM in [2]; 59 µM in [4]; 240 µM in assay [5]. The “nH (Hill coefficient)” value in assay [1] was 2.86 ± 0.14; in assay [2], 2.90 ± 0.68; in assay [4], 2.90 ± 0.53; in assay [5], 3.10 ± 0.39.
